Assay results: US5637582A, “Peripheral circulation improving agent” (priority 1992, dated 1997)

Columns and labels:
femoral artery = assay: Femoral arterial blood flow, hind leg cooling model of Raynaud's disease (Experimental Example 5); assay type: in vivo, male SD rat
Procedure: (Lower limbs peripheral circulation disorder model due to hind leg cooling: Model of Raynaud's disease)
A catheter was inserted into left common carotid artery of a male SD rat (one group consisting of 5 rats) under anesthesia, and the arterial blood pressure was measured with a standard pressure transducer (manufactured by Nihon Koden. TP-200T, trade name) through a catheter attached to the artery. After isolating the left femoral artery from the peripheral connective tissue, a flow probe (HDP 10-20R: F 1.0 mm) of a Doppler blood flow meter (manufactured by Crystal Biotec Co., PD20, trade name) was attached thereto and was connected to the Doppler blood flow meter to measure the artery blood flow. After the operation, at the time that the state became stable, the left hind leg was exposed to a perfused solution at 10° C. to decrease the femoral arterial blood flow. After 30 minutes, 1 ml/kg of a 0.9% NaCl solution or 300 μg/kg of the test compound A was intravenously administered and the state was observed. In the case of Beraprost Na, continuous injection in an amount of […] was carried out after 30 minutes from cooling. The compounds to be used were each dissolved in a 0.9% NaCl solution.
The present model is disclosed, for example, in Nishio et al, "Effect of Beraprost Sodium on Peripheral Circulatory Disturbances Induced by Various Stimuli", Arzneim.-Forsch./Drug Res., 39 (II), Nr. 10 (1989), pp. 1229-1234. Note particularly the section "2.4. Sphygmometry in rat hind paw", at page 1230.

arterial blood pressure = tested on: arterial blood pressure; set-up: species or system male SD rat; settings: rat, in vivo
Procedure: (Lower limbs peripheral circulation disorder model due to hind leg cooling: Model of Raynaud's disease) […] TP-200T, trade name) through a catheter attached to the artery. […] After the operation, at the time that the state became stable, the left hind leg was exposed to a perfused solution at 10° C. to decrease the femoral arterial blood flow. […] In the case of Beraprost Na, continuous injection in an amount of […] was carried out after 30 minutes from cooling. […] The present model is disclosed, for example, in Nishio et al, "Effect of Beraprost Sodium on Peripheral Circulatory Disturbances Induced by Various Stimuli", Arzneim.-Forsch./Drug Res., 39 (II), Nr. 10 (1989), pp. 1229-1234. Note particularly the section "2.4. Sphygmometry in rat hind paw", at page 1230.

SMILES: CC#CCC(C)[C@H](O)/C=C/[C@@H]1[C@H]2c3cccc(CCCC(=O)O)c3O[C@H]2C[C@H]1O (some centres unmarked) [Compound J, Beraprost Na, reference compound]
- Femoral Arterial Blood Flow change (femoral artery; 0 min (before cooling and administration; 30 min = 0)): 1.116 Δ ml/min
- Femoral Arterial Blood Flow change (femoral artery; 40 min, given at 30 min: A 300 μg/kg i.v., J 0.3 μg/kg/ml continuous injection): 0.252 Δ ml/min
- Femoral Arterial Blood Flow change (femoral artery; 50 min, given at 30 min: A 300 μg/kg i.v., J 0.3 μg/kg/ml continuous injection): 0.304 Δ ml/min
- Femoral Arterial Blood Flow change (femoral artery; 60 min, given at 30 min: A 300 μg/kg i.v., J 0.3 μg/kg/ml continuous injection): 0.368 Δ ml/min
- Femoral Arterial Blood Flow change (femoral artery; 70 min, given at 30 min: A 300 μg/kg i.v., J 0.3 μg/kg/ml continuous injection): 0.436 Δ ml/min
- Femoral Arterial Blood Flow change (femoral artery; 80 min, given at 30 min: A 300 μg/kg i.v., J 0.3 μg/kg/ml continuous injection): 0.372 Δ ml/min
- Femoral Arterial Blood Flow change (femoral artery; 90 min, given at 30 min: A 300 μg/kg i.v., J 0.3 μg/kg/ml continuous injection): 0.344 Δ ml/min
- Mean Arterial Pressure change (arterial blood pressure): 1.20 Δ mmHg
